The source made the active and inactive calls.
Legend:
[1] = target: Melanin-concentrating hormone receptor 1 (Homo sapiens, UniProt Q99705); assay: Late-stage fluorescence-based counterscreen for antagonists of the G-protein coupled receptor 7 (GPR7): cell-based dose response assay to identify antagonists of the melanin-concentrating hormone receptor 1 (MCHR1) Set 6.; type: functional
[2] = target: Neuropeptides B/W receptor type 1 (Homo sapiens, UniProt P48145); assay: GPR7 antagonist potency, late-stage follow-up, cell-based, fluorescence, dose response, set 6 (AID 588583); type: functional
[3] = THP-1 cell cytotoxicity, cytotoxicity control, set 5 (AID 588443); type: functional
Large T antigen = Large T antigen (Simian virus 40, UniProt P03070); type: functional, Betapolyomavirus macacae;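 further: Confirmatory-stage PubChem screen for compounds that inhibit SV40 T antigen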
[4] = target: Intestinal-type alkaline phosphatase (Homo sapiens, UniProt P09923); assay: activation of human intestinal alkaline phosphatase – biochemical, dose response (AID 488873); type: functional
[5] = target: FAD-linked sulfhydryl oxidase ALR (Homo sapiens, UniProt P55789); assay: inhibitors of human ALR sulfhydryl oxidase, dose response, biochemical, H2O2 detection, luminescence, cherry-pick (AID 493248)
[6] = target: Intestinal-type alkaline phosphatase (Mus musculus, UniProt P24822); assay: mouse intestinal alkaline phosphatase activators, dose response, biochemical, luminescence, uHTS hits (AID 488783); type: functional
[7] = target: T1, Alkaline phosphatase, tissue-nonspecific isozyme (Homo sapiens, UniProt P05186); assay: TNAP enzyme activators, dose response, selectivity assay for mouse IAP activator project, biochemical, TNAP isozyme, mouse IAP uHTS hits (AID 488880); type: functional
T1 sequence (P05186 whole entry): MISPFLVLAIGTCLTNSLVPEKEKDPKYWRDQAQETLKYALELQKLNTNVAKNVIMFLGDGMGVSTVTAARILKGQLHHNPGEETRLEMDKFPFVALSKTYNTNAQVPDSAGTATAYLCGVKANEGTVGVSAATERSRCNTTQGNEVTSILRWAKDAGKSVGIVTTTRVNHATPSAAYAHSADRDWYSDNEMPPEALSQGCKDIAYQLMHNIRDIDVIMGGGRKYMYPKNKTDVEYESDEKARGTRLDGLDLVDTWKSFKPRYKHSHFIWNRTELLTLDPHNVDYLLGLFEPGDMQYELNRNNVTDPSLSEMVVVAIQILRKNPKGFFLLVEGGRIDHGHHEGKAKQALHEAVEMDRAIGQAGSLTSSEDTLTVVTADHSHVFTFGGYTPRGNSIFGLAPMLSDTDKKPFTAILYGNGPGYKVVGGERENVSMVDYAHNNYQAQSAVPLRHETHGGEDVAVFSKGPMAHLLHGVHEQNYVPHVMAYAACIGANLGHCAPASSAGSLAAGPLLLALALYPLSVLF

[8] = target: Benomyl/methotrexate resistance protein (Candida albicans, UniProt P28873); assay: CaMdr1 efflux pump inhibitor potency, dose response, singleplex, Cherry Pick1 hits (AID 588608); type: functional
[9] = target: Multidrug resistance protein CDR2 (Candida albicans (strain SC5314 / ATCC MYA-2876) (Yeast), UniProt P78595); assay: CaCDR2 efflux pump inhibitors in yeast, dose response, S. cerevisiae AD1-8u, singleplex, Cherry Pick1 hits (AID 588604); type: functional
[10] = target: 26S proteasome non-ATPase regulatory subunit 14 (Homo sapiens, UniProt O00487); assay: inhibition of proteasome subunit RPN11 – biochemical, fluorescence polarization, uHTS hits, confirmation (AID 602368); type: functional
[11] = target: 72 kDa type IV collagenase (Homo sapiens, UniProt P08253); assay: Dose Response validation of uHTS RPN11 inhibitor hits using a MMP-2 Fluorescence assay.; type: functional
Prothrombin = Prothrombin (Bos taurus, UniProt P00735); assay: thrombin inhibition, dose response, biochemical, fluorescence polarization, uHTS hits (AID 602369); type: functional
[12] = target: T2, Histone-lysine N-methyltransferase NSD2 (Homo sapiens, UniProt O96028); type: biochemical
T2 sequence (O96028 whole entry): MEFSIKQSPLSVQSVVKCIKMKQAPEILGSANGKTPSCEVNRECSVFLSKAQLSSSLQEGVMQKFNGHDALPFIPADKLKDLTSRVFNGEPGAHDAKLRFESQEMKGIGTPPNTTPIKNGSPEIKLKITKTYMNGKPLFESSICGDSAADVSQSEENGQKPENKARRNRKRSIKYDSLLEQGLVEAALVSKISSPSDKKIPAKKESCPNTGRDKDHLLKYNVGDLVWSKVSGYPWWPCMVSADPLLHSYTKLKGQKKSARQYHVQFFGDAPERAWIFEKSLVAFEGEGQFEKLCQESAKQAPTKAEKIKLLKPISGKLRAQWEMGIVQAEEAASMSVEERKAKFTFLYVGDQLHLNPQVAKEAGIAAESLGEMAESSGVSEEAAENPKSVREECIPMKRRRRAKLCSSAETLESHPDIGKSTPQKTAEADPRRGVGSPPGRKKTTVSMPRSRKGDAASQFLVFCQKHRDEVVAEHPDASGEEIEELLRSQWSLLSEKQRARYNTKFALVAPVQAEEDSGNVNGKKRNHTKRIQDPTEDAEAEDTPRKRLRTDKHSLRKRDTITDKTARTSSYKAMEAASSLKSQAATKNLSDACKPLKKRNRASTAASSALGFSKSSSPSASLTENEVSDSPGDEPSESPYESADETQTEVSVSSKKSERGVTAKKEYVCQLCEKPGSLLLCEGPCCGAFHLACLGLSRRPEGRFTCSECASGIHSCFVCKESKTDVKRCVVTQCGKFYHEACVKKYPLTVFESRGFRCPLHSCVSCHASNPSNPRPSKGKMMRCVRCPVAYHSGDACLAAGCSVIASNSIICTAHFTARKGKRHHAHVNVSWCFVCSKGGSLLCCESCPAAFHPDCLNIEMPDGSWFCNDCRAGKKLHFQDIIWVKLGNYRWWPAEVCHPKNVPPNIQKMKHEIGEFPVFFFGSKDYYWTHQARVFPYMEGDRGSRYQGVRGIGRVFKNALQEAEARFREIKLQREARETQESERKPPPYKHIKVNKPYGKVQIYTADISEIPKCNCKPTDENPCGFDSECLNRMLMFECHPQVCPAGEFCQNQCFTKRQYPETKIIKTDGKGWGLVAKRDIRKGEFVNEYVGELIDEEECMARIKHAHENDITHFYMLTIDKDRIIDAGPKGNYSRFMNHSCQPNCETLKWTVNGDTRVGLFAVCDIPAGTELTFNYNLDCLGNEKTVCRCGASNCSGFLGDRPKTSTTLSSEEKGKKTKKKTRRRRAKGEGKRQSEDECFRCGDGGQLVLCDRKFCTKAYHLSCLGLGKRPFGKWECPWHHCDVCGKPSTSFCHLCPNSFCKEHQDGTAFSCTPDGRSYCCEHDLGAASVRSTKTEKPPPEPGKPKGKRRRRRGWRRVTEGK

26S proteasome non-ATPase regulatory subunit 14, sequence (O00487 whole entry): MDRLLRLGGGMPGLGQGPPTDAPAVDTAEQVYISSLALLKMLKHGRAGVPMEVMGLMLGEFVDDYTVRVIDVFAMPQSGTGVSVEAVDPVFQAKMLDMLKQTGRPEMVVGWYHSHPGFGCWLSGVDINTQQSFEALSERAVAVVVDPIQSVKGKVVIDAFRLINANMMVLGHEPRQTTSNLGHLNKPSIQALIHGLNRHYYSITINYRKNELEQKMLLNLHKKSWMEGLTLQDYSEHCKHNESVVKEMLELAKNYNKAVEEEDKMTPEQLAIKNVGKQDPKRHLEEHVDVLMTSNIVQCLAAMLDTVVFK
Neuropeptides B/W receptor type 1, sequence (P48145 whole entry): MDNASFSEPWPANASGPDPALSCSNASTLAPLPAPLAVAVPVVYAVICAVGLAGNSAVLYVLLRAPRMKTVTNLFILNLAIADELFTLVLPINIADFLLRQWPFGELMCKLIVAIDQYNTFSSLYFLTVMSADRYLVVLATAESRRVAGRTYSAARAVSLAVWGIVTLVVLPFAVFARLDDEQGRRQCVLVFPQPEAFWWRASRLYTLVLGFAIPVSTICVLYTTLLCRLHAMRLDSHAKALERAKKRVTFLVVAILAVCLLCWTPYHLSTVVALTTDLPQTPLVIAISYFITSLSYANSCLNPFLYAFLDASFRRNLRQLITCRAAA
Large T antigen, sequence (P03070 whole entry): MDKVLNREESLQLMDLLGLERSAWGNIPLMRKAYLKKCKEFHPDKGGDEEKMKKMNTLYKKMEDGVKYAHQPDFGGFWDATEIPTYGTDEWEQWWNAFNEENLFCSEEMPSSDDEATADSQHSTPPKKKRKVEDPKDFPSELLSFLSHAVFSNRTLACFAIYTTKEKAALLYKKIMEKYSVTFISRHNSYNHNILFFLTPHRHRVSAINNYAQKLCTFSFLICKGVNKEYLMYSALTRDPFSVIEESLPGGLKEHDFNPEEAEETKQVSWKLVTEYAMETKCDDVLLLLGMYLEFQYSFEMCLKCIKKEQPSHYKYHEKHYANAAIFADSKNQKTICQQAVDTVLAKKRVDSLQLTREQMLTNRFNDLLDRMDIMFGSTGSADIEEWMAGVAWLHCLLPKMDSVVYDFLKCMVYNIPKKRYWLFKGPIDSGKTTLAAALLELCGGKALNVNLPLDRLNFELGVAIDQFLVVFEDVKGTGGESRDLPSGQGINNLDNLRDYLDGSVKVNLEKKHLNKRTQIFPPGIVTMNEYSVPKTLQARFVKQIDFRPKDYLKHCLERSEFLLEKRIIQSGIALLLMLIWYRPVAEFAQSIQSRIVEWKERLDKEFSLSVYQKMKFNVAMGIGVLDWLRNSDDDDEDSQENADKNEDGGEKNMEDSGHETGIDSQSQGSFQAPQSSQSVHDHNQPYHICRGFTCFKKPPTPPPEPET
Benomyl/methotrexate resistance protein, sequence (P28873 whole entry): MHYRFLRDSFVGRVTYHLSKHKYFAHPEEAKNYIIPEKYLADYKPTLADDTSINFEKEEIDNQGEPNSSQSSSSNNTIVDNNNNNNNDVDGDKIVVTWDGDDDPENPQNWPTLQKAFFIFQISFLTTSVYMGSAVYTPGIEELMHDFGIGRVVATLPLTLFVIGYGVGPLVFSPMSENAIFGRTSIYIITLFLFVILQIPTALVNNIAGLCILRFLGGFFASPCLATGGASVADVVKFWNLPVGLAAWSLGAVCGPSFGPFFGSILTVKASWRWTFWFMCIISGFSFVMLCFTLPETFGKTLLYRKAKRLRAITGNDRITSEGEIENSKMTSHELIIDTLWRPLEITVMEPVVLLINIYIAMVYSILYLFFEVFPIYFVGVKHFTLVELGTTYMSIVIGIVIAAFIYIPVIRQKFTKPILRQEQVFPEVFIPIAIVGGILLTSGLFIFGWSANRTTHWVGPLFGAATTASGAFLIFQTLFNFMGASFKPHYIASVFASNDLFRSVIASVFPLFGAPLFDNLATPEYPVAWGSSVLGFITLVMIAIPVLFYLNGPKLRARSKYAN
Melanin-concentrating hormone receptor 1, sequence (Q99705 whole entry): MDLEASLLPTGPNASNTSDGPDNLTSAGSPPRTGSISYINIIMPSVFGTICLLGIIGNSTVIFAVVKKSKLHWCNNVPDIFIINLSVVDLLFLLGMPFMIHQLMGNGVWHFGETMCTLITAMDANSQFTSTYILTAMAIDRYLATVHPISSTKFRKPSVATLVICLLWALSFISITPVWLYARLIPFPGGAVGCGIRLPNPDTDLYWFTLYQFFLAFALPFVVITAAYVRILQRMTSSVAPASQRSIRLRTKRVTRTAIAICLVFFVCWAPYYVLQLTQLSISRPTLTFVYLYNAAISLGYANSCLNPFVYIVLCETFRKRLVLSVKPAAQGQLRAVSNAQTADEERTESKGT
Intestinal-type alkaline phosphatase (Homo sapiens, UniProt P09923), sequence (P09923 whole entry): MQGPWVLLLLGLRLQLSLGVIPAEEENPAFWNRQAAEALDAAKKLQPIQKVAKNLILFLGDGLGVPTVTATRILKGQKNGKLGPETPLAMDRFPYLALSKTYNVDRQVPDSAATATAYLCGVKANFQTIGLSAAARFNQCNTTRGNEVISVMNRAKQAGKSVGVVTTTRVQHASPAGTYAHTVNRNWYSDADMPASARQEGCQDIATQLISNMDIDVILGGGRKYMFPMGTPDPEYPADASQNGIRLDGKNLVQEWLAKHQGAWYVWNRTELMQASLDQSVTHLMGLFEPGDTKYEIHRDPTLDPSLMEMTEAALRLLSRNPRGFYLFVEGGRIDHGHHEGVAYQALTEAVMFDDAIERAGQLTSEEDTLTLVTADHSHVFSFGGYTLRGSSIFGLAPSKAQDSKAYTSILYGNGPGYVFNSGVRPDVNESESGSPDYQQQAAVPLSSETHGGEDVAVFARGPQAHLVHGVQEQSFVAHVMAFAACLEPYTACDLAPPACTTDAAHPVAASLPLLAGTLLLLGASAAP
72 kDa type IV collagenase, sequence (P08253 whole entry): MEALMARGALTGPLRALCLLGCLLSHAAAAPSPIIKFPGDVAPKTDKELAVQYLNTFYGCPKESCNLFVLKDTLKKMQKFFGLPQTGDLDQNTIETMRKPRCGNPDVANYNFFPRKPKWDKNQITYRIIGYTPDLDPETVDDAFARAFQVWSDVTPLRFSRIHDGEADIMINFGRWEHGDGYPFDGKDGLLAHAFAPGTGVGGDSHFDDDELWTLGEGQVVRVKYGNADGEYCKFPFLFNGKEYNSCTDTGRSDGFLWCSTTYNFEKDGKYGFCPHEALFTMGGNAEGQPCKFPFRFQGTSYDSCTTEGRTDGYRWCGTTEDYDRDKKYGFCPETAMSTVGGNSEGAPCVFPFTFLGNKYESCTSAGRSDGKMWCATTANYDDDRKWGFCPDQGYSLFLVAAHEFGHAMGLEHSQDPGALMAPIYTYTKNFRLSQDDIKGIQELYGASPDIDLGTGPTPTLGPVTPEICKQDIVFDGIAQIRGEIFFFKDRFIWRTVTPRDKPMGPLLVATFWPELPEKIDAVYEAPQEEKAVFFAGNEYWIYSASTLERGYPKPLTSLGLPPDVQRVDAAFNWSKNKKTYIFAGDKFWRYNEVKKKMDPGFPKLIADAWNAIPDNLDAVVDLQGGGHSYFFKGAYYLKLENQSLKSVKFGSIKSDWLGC
Multidrug resistance protein CDR2, sequence (P78595 whole entry): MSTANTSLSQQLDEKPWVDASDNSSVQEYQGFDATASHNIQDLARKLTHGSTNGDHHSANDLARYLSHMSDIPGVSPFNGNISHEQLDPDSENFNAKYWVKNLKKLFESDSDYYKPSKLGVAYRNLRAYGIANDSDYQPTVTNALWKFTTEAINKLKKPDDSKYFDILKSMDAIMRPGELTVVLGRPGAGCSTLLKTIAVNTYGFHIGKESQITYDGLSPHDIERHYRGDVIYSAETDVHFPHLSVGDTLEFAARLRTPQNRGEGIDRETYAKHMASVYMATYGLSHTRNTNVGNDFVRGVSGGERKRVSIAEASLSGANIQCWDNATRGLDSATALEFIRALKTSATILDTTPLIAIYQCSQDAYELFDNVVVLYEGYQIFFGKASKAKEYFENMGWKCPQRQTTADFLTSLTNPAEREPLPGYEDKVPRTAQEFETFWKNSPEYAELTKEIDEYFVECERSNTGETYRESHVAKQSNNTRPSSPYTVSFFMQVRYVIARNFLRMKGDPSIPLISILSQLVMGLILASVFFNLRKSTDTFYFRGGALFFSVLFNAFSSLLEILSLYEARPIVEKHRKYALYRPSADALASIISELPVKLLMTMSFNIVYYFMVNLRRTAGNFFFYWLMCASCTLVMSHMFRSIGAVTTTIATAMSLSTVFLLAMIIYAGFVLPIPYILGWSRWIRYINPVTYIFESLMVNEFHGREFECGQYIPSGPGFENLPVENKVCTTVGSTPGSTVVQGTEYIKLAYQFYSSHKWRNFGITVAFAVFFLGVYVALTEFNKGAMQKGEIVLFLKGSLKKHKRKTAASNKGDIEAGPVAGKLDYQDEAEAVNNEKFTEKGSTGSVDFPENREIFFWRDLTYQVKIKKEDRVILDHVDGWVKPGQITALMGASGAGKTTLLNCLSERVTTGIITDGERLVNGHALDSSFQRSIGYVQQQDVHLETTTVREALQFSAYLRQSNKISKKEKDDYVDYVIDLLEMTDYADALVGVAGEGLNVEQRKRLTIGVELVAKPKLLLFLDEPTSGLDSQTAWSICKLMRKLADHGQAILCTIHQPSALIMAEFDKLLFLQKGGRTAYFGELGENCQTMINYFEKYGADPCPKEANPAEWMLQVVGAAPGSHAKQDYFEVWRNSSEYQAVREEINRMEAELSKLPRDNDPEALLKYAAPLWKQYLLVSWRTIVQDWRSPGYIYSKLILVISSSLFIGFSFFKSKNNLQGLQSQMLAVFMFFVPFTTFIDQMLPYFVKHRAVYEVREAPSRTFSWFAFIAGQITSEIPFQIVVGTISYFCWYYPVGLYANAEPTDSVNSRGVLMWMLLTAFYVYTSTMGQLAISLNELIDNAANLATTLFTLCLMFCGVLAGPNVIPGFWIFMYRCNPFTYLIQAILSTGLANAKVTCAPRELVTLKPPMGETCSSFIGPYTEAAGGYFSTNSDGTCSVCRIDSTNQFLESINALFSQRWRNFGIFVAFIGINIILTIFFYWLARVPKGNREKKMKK

**Q.** Which IC50 [1] does the source give for `CCOc1ccc(C(C#N)c2c(Cl)cnn(Cc3cccc4ccccc34)c2=O)c(F)c1F` (centres undefined) here?
**A.** 0.601 µM (active)

**Q.** What about the IC50 [2] of the same compound?
**A.** 0.601 µM (active)

**Q.** With `CC1CC(C)CN(C(=O)C2CCC(CNc3c(N4CCCCC4)c(=O)c3=O)CC2)C1` (centres undefined) as the compound, how does the CC50 [3] read?
**A.** > 30 µM (inconclusive)

**Q.** With `O=C(O)C(c1ccccc1)N1C(=O)/C(=C\c2ccc(O)c(O)c2)SC1=S` (centres undefined) as the compound, how does the IC50 (Large T antigen) read?
**A.** 7.85 µM (active)

**Q.** And the EC50 [4]?
**A.** 59.1 µM (active)

**Q.** And the AC50 [5]?
**A.** 0.208 µM (active)

**Q.** And the EC50 [6]?
**A.** 61 µM (active)

**Q.** And the EC50 [7]?
**A.** 24.1 µM (active)

**Q.** And the EC50 [8]?
**A.** 2.72 µM (active)

**Q.** And the EC50 [9]?
**A.** 4.78 µM (active)

**Q.** And the IC50 [10]?
**A.** 26.3 µM (active)

**Q.** What about the IC50 [11] of the same compound?
**A.** 39.7 µM (active)

**Q.** What about the IC50 (Prothrombin) of the same compound?
**A.** 30.7 µM (active)

**Q.** And the AC50 [12]?
**A.** 4.05 µM (active)

— ChEMBL document CHEMBL1201862, “PubChem BioAssay data set” (2004)
